Data on six compounds can be found in US4999344A, “Phosphatidyl treatment of rapidly proliferating cells” (priority 1988, dated 1991).

For data set [1], the system named is N4TG1 neuroblastoma cells. The data set is described as follows: Fate of liposomal PI after incubation with N4TG1 neuroblastoma cells. It is filed as in vitro ADME, mouse. An excerpt:
Lipids were dried and resuspended exactly as described previously in the Biochem. Biophys. Res. Commun. article. In the use of ([^14 C]linoleoyl)PI, ([^14 C]oleoyl)PI, or ([^14 C]arachidonoyl)PI the phospholipids were used in a 2:1 molar combination with cholesterol. Cholesterol was included in the liposomes in order to minimize the net transfer of cholesterol into or out of the cells. ([^3 H]myo-Inositol)PI was used as a tracer (1%) with bovine liver PI as the bulk phospholipid carrier for forming liposomes. [^3 H]Linoleic acid was used as a tracer (4%) in liposomes containing linoleic acid:PI (yeast or animal): cholesterol, 2:1. […]
In order to extract lipids, methanol and chloroform were added to cell homogenates to obtain a single phase of CHCl3 :CH3 OH:H2 O (1:2:1 8, v/v) containing 0.1M HCl, according to Bligh and Dyer in Can. […] The lipid compositions of the cell extracts were determined by thin layer chromatography on silica gel precoated sheets (E. M. Reagents; E. Merck, FRG) using the following solvent systems: (a) chloroform:methanol: acetic acid:water, 25:15:4:2 (v/v) (used for phospholipid separation): (b) 1-propanol:4.3M ammonia containing 10 mM EDTA, 65:35 (v/v) (used for PIP and PIP2 separations); and (c) chloroform:acetone, 1:1 (v/v) (used for DG and fatty acid separations). […]

The subject of data set [2] is N4TG1 neuroblastoma cells. The data set is described as follows: Thymidine uptake (cell viability) by N4TG1 neuroblastoma cells incubated with liposomes. It is filed as cell-based, mouse. Here is the method: Plant PI(S) is from the Sigma Chemical Company and plant PI(A) is from Avanti Polar Lipids, Inc. and ([^14 C]linoleoyl)PI is the synthetic PI.
FIGS. 3a and 3b show the effect of increasing the molar fraction of synthetic PI or animal PI in liposomes on (a) thymidine uptake (FIG. 3a) and myo-inositol uptake (FIG. 3b) by N4TG1 neuroblastoma cells, .circle. 100 μm PI, 200 μm PI, 300 μm PI. Cells were incubated with liposomes made up of the various combinations indicated (mol %) of ([^14 C]linoleoyl)PI and animal PI.
FIGS. 9a, b, c, and d show the effect of inhibitors on PI toxicity to tumor cells.
(§1) Lipids were dried and resuspended exactly as described previously in the Biochem. Biophys. Res. Commun. article. In the use of ([^14 C]linoleoyl)PI, ([^14 C]oleoyl)PI, or ([^14 C]arachidonoyl)PI the phospholipids were used in a 2:1 molar combination with cholesterol. Cholesterol was included in the liposomes in order to minimize the net transfer of cholesterol into or out of the cells. ([^3 H]myo-Inositol)PI was used as a tracer (1%) with bovine liver PI as the bulk phospholipid carrier for forming liposomes. [^3 H]Linoleic acid was used as a tracer (4%) in liposomes containing linoleic acid:PI (yeast or animal): cholesterol, 2:1. It was shown that it is not necessary to have cholesterol present to observe the cytotoxicity.
The N4TG1 mouse neuroblastoma cell line was obtained from Dr. Peter Chiang (Walter Reed Army Institute of Research) and cultured using Dulbecco's minimal essential medium (MEM: Grand Island Biological Co.) containing 10% fetal bovine serum. Cells were routinely started from frozen cultures every 6 weeks in order to assure that the cells used were from low passage cultures.
[methyl-^3 H]Thymidine (New England Nuclear) incorporation was carried out using 96-well plates (Costar). Thymidine incorporation was used as an assay for cell viability, since in the previous studies described in the Biochem. Biophys. Res. Commun. (1983) article, other methods of assessing cell viability, including microscopic evaluation in the presence of trypan blue, gave identical results. Fifty μl of cell suspension (4×10^5 cells/ml) were added to duplicate wells. Approximately 18 hours later 25 μl of the PI-containing liposomes were added to give a final concentration of phospholipid of 200 μM (approximately, 14 nmol/2-3×10^4 cells). At various intervals after PI addition [^3 H]thymidine, 1 μCi/well was added and incubated with the cells for 3 hours. Cells were collected on glass fiber filter mats by a mechanical cell harvester (Skatron, Inc.) using a combination of scraping and fluid turbulence (saline). Filters were dried and the material was solubilized by incubation overnight with NCS tissue solubilizer and counted in the presence of Spectrafluor (Amersham).
In FIGS. 1 and 2 the curves were quite reproducible and representative experiments are shown. Because of fluctuations (<5%) in control values, the data were "normalized" by comparison with daily controls and expressed as "percentage of control in absence of PI." Typical values for uptake of [^3 H]thymidine by controls are shown in the inserts in FIGS. 1 and 2.

Data set [3] relates to N4TG1. Kind of data set: Liposomal uptake by normal and tumor cells. It is filed as cell-based, mouse. Conditions: tumor cells N4TG1. Here is the method: (§2) Thymidine uptake is a method of assessing cell viability of cultured cells, and decreased thymidine uptake occurs as a result of cytotoxicity caused by contact with toxic substances. , MRC-5 normal embryonic lung fibroblasts; , W1-38SV/40 transformed embryonic human lung fibroblasts; .quadrature..quadrature., SK-N-MC human glioblastoma cells and , N4TG1 mouse neuroblastoma cells.
(§3) Cells were treated with liposomes containing synthetic preparations of PI (left frames) or PC (right frames) containing palmitic acid in the sn-1 position and either [^14 C]linoleic acid in the sn-2 position (FIGS. 5 and 5a) or [^14 C]arachidonic acid in the sn-2 position (FIGS. 6 and 6a) or [^14 C]oleic acid in the sn-2 position (FIGS. 7 and 7a). The liposomes were comprised of the indicated phospholipids (PI or PC) and cholesterol in a molar ratio of 2:1.
(§4) The data in Table 5 was obtained concomitantly with the toxicity studies in FIGS. 5-7a.

For data set [4], the system named is MRC-5. Kind of data set: Liposomal uptake by normal and tumor cells. The conditions noted are these: normal cells MRC-5. The format is cell-based. Here is the method: as §2, §3, §4
The test system of data set [5] is WI-38/SV-40. Kind of data set: Liposomal uptake by normal and tumor cells. It is filed as cell-based, human. On the procedure:
as §2, §3, §4

Data set [6] has as its system SK-N-MC. Kind of data set: Liposomal uptake by normal and tumor cells. The format is cell-based, human. Conditions: tumor cells SK-N-MC. On the procedure: as §2, §3, §4
The test system of data set [7] is HT-144. The data set is described as follows: Liposomal uptake by normal and tumor cells. The conditions noted are these: tumor cells HT-144. The format is cell-based, human. On the procedure:
as §3, §4

The test system of data set [8] is N4TG1 neuroblastoma cells. The data set is described as follows: Cellular uptake of linoleic acid from liposomes (tracer 3H-linoleic acid). It is filed as cell-based, mouse.
Source text: as §1
Cellular uptake of linoleic acid was calculated based on uptake of tracer ^3 H-linoleic acid. In Table 1 intracellularly generated free fatty acids occurred at a concentration of 2.2 nmol/8×10^5 cells. […] In the case of liposomes containing yeast PI as the phospholipid, the uptake of linoleic acid was 2.9 nmol/8×10^5 cells and the thymidine incorporation had decreased to 53% of control values. Although toxicity occurred at similar concentrations of fatty acids as were generated intracellularly it must be kept in mind that in the experiment in Table 2 there were also extracellular free fatty acids which could exert effects on the outer surface of the cells.

The test system of data set [9] is N4TG1 neuroblastoma cells. The data set is described as follows: Effect on cells by linoleic acid in liposomes made of non-cytotoxic phospholipids (thymidine uptake). The format is cell-based, mouse.
Source text: as §1
The N4TG1 mouse neuroblastoma cell line was obtained from Dr. Peter Chiang (Walter Reed Army Institute of Research) and cultured using Dulbecco's minimal essential medium (MEM: Grand Island Biological Co.) containing 10% fetal bovine serum. […]
[methyl-^3 H]Thymidine (New England Nuclear) incorporation was carried out using 96-well plates (Costar). […] Filters were dried and the material was solubilized by incubation overnight with NCS tissue solubilizer and counted in the presence of Spectrafluor (Amersham). […]
Cellular uptake of linoleic acid was calculated based on uptake of tracer ^3 H-linoleic acid. […]

The test system of data set [10] is lung small cell carcinoma cultures (NCI-H128). Kind of data set: Toxicity to lung small cell carcinoma cultures, based on thymidine uptake, with inhibitors. Further details: species or system human. The conditions noted are these: FIGS. 9c and 9d; for blocking of plant PI toxicity / competition: with plant PI. The text has this:
FIGS. 9c and 9d show the effects of inhibitors of phospholipase A2 (quinacrine) or prostaglandin synthesis (eicosanotetraynoic acid) or leukotriene synthesis ([…]) on cytotoxicity induced by liposomes containing plant PI/cholesterol/([^14 C]linoleoyl)PI (2/1/0.01). The NCI-H128 cells are a small cell lung carcinoma cultured cell line
Several specific inhibitors were used with lung small cell carcinoma cultures. […] In humans, this type of lung cancer is fatal very soon after detection.

On to `CCCCC/C=C\C/C=C\C/C=C\C/C=C\CCC[14C](=O)O[C@H](COC(=O)CCCCCCCCCCCCCCCCC)COP(=O)(O)O[C@@H]1[C@H](O)[C@H](O)[C@@H](O)[C@H](O)[C@H]1O` [([^14 C]arachidonoyl)PI], for which the Phosphatidylcholine entry in data set [1] is “Not Detected”. Further, the cytotoxicity entry in data set [2] is given as “considerable cytotoxicity”. Moreover, the Liposomal uptake in data set [3] is 0.49 nMoles of phospholipid/1 × 10^5 cells; in data set [4] it was 0.09 nMoles of phospholipid/1 × 10^5 cells; in data set [5] it was 0.33 nMoles of phospholipid/1 × 10^5 cells; in data set [6], 0.39 nMoles of phospholipid/1 × 10^5 cells; in data set [7], 0.55 nMoles of phospholipid/1 × 10^5 cells.
Regarding `CCCCCCCC/C=C\CCCCCCC[14C](=O)O[C@H](COC(=O)CCCCCCCCCCCCCCCCC)COP(=O)(O)O[C@@H]1[C@H](O)[C@H](O)[C@@H](O)[C@H](O)[C@H]1O` [([^14 C]oleoyl)PI, reference compound], the cytotoxicity entry in data set [2] is listed as “lacked cytotoxicity”. Besides, the Liposomal uptake in [3] is recorded as 0.28 nMoles of phospholipid/1 × 10^5 cells; in data set [4], 0.13 nMoles of phospholipid/1 × 10^5 cells; in [5] it was 0.21 nMoles of phospholipid/1 × 10^5 cells; in [6], 0.28 nMoles of phospholipid/1 × 10^5 cells; in data set [7], 0.28 nMoles of phospholipid/1 × 10^5 cells.
Consider `CCCCC/C=C\C/C=C\CCCCCCCC(=O)O` [Linoleic acid, linoleic acid], for which the “uptake of linoleic acid” value is reported as 2.55 nmol/8 × 10^5 cells in data set [8] (50 μM, Animal Phosphatidylinositol liposomes); 1.8 nmol/8 × 10^5 cells in data set [8] (50 μM, Yeast Phosphatidylinositol liposomes); 3.03 nmol/8 × 10^5 cells in data set [8] (100 μM, Animal Phosphatidylinositol liposomes); 2.9 nmol/8 × 10^5 cells in [8] (100 μM, Yeast Phosphatidylinositol liposomes); 10.4 nmol/8 × 10^5 cells in data set [8] (200 μM, Animal Phosphatidylinositol liposomes); 14.8 nmol/8 × 10^5 cells in data set [8] (200 μM, Yeast Phosphatidylinositol liposomes). The “decrease in thymidine incorporation compared with controls” value in data set [9] (liposomes with animal PI, uptake 2.55 nmol/8×10^5 cells) is 63%. For the same compound, the thymidine incorporation in data set [9] (liposomes with yeast PI, uptake 2.9 nmol/8×10^5 cells) is 53 % of control values.
Consider `CCN(CC)CCCC(C)Nc1c2ccc(Cl)cc2nc2ccc(OC)cc12` (stereo not drawn) [Quinacrine, quinacrine, reference compound], for which the “effect of quinacrine on cytotoxicity of plant PI” value in data set [2] (in conjunction with plant PI, FIG. 9b) was “reversal of cytotoxicity”. Also, in data set [2] (tumor or normal cells, FIG. 9a), the “cytotoxicity of quinacrine alone” value was “somewhat cytotoxic”. For the same compound, in [10], the toxicity result is given as “extremely toxic” and the “blocking of plant PI toxicity / competition” value is reported as “No competition was observed”.
On to `CCCCCC#CCC#CCC#CCC#CCCCC(=O)O` [eicosanotetraynoic acid], for which the “blocking of plant PI toxicity / competition” value in [10] is “relatively little promise of blocking the toxicity of plant PI”.
On to `COc1ccc2c(c1)c(CC(=O)O)c(C)n2C(=O)c1ccc(Cl)cc1` [indomethecin, indomethacin], for which, in data set [10], the “blocking of plant PI toxicity / competition” value is recorded as “relatively little promise of blocking the toxicity of plant PI”.
